Where two headings read alike, the source gives them in different places.
Assays:
[1] = test system: AP-1 induced transcriptional activity; assay: Cellular transrepressional assay (AP-1 luciferase reporter, PMA-activated A549 cell); format: cell-based; settings: A549 cell, 10 ng/ml PMA, 7 hours; for EC50: read-out: AP-1 (EC50, nM) (measured in cellular transrepression assay)
Method: To measure the ability of test molecules to inhibit AP-1 induced transcriptional activity we utilized an A549 cell which was stably transfected with a plasmid containing 7×AP-1 DNA binding sites (pAP-1-Luc plasmid, Stratagene Co., La Jolla, Calif.) followed by the gene for luciferase. Cells were activated with 10 ng/ml of phorbol myristic acid (PMA) plus or minus test molecules for 7 hours. After 7 hours a luciferase reagent was added to measure luciferase enzymatic activity in the cell. After a 10 minute incubation of luciferase reagent with cells, luminescence was measured in a TOPCOUNT® luminescence counter. Repression of AP-1 activity was calculated as the percentage decrease in the signal induced by PMA alone. Test molecules were analyzed in the concentration range from 0.1 nM to 40 μM. EC50s were determined by using standard curve fitting methods such as Excel fit (Microsoft Co.). An EC50 is the test molecule concentration at which there is a 50% repression of the maximal inhibition of transcription, i.e., a 50% reduction of AP-1 activity.

[2] = molecular target: human full-length glucocorticoid receptor (Homo sapiens (Human), UniProt P04150); assay: Glucocorticoid Receptor Binding Assay (II), fluorescence polarization competitor kit; settings: read-out: GR (Ki, nM) (measured in GR binding Assay II)
Chain of human full-length glucocorticoid receptor (P04150 whole entry): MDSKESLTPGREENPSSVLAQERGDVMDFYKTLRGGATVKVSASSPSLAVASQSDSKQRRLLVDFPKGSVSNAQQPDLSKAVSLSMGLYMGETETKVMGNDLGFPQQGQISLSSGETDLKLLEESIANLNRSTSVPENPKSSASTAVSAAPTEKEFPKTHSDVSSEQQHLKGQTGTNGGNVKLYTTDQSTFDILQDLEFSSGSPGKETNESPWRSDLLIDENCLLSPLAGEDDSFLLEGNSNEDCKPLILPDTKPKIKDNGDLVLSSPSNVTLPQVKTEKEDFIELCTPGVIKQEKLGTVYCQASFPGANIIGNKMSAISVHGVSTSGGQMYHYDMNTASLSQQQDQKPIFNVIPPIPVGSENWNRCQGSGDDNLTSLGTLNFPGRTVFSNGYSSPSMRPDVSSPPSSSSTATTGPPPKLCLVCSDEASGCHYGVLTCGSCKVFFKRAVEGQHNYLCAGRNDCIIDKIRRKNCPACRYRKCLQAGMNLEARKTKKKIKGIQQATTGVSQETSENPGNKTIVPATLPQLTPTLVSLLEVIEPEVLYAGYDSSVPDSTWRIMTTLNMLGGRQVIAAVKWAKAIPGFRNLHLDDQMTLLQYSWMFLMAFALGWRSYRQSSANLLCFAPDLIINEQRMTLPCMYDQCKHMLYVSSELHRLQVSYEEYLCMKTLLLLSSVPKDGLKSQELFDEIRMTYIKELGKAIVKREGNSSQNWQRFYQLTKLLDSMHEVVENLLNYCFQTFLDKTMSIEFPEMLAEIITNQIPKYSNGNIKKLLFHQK
Method: In order to measure the binding of compounds on the glucocorticoid receptor a commercially available kit was used (Glucocorticoid receptor competitor assay kit, PanVera Co., Madison, Wis., P2816). Briefly, a cell lysate containing recombinantly expressed human full-length glucocorticoid receptor was mixed with a fluorescently labeled glucocorticoid (1 nM Fluormone GS1) in the presence or absence of test compound. After one hour at room temperature, the fluorescence polarization (FP) of the samples were measured.

Row | Structure (SMILES) | AP-1 Max % inhibition (measured in cellular transrepression assay) [1] [%] | EC50 ([1]; Homo sapiens) [nM] | Ki [2] [nM] | EC50 [1] [nM]
1 | CCC(=O)NC(=O)C(C)(C)[C@@H]1c2ccc(Cl)nc2Oc2c(F)cccc21 [Example 1] | 17.32 | 5000 | 42.7 | –
2 | CC(=O)NC(=O)C(C)(C)[C@@H]1c2ccc(-c3ccc(C(=O)N4CCOCC4)cc3)nc2Oc2c(F)cccc21 [Example 2] | 67.48 | 4.97 | – | –
3 | CC(=O)NC(=O)C(C)(C)[C@@H]1c2ccc(-c3ccc(C(=O)N(C)C)cc3)nc2Oc2c(F)cccc21 [Example 3] | 79.66 | 267 | – | –
4 | CC(=O)NC(=O)C(C)(C)[C@H]1c2ccccc2Oc2nc(-c3ccc(C(=O)N4CCOCC4)cc3)ccc21 [Example 4] | 67.93 | 6.65 | – | –
5 | CCC(=O)NC(=O)C(C)(C)[C@@H]1c2ccc(-c3ccc(C(=O)N4CCOCC4)cc3)nc2Oc2c(F)cccc21 [Example 5] | 32.83 | 180 | – | –
6 | CC(=O)NC(=O)C(C)(C)[C@@H]1c2ccc(-c3ccc(C(=O)N4CCCC4)cc3)nc2Oc2c(F)cccc21 [Example 8] | 64.35 | – | 3.59 | 5.97
7 | CC(C)(C(=O)NC(=O)N1CCOCC1)[C@@H]1c2ccc(-c3ccc(C(=O)N4CCOCC4)cc3)nc2Oc2c(F)cccc21 [Example 10] | 66.12 | 623 | – | –
8 | CNC(=O)NC(=O)C(C)(C)[C@@H]1c2ccc(-c3ccc(C(=O)N4CCCC4)cc3)nc2Oc2c(F)cccc21 [Example 11] | 46.34 | – | 4.44 | 29.6
9 | CCS(=O)(=O)c1ccc(-c2ccc3c(n2)Oc2c(F)cccc2[C@@H]3C(C)(C)C(=O)NC(=O)NC)cc1 [Example 12] | 36.42 | – | 5.04 | 85.7
10 | CNC(=O)NC(=O)C(C)(C)[C@@H]1c2ccc(-c3ccc(S(C)(=O)=O)cc3)nc2Oc2c(F)cccc21 [Example 13] | 31.60 | – | 13.6 | 483
11 | CNC(=O)NC(=O)C(C)(C)[C@@H]1c2ccc(Cl)nc2Oc2c(F)cccc21 [Example 14] | 54.92 | 337 | – | –
12 | CNC(=O)NC(=O)C(C)(C)[C@@H]1c2ccc(-c3ccc(C(C)(C)O)cc3)nc2Oc2c(F)cccc21 [Example 15] | 61.15 | 47.1 | – | –
13 | CNC(=O)NC(=O)C(C)(C)[C@@H]1c2ccc(-c3ccc(OC(C)C)cc3)nc2Oc2c(F)cccc21 [Example 16] | 49.58 | – | 1.6 | 35.1
14 | CNC(=O)NC(=O)C(C)(C)[C@@H]1c2ccc(-c3ccc(OC(C)C)nc3)nc2Oc2c(F)cccc21 [Example 17] | 37.10 | – | 9.68 | 2500
15 | CNC(=O)NC(=O)C(C)(C)[C@@H]1c2ccc(-c3cnc(N4CCN(C)CC4)nc3)nc2Oc2c(F)cccc21 [Example 18] | 21.96 | – | 239 | 5000
16 | CC(C)NC(=O)NC(=O)C(C)(C)[C@@H]1c2ccc(-c3ccc(C(=O)N4CCOCC4)cc3)nc2Oc2c(F)cccc21 [Example 19] | 25.94 | 199 | – | –
17 | CC(C)(C(=O)NC(=O)NC1CCCC1)[C@@H]1c2ccc(-c3ccc(C(=O)N4CCOCC4)cc3)nc2Oc2c(F)cccc21 [Example 20] | 29.26 | – | – | 135
18 | CC(C)(C(=O)NC(=O)Nc1ccccc1)[C@@H]1c2ccc(-c3ccc(C(=O)N4CCOCC4)cc3)nc2Oc2c(F)cccc21 [Example 21] | 39.92 | – | – | 21.7
19 | CCNC(=O)NC(=O)C(C)(C)[C@@H]1c2ccc(-c3ccc(C(=O)N4CCOCC4)cc3)nc2Oc2c(F)cccc21 [Example 22] | 44.77 | – | – | 8.21
20 | CNC(=O)NC(=O)C(C)(C)[C@@H]1c2ccc(-c3ccc(S(=O)(=O)C(C)C)cc3)nc2Oc2c(F)cccc21 [Example 25] | 25.41 | – | 5.26 | 347
21 | COC(=O)NC(=O)C(C)(C)[C@@H]1c2ccc(-c3ccc(C(=O)OC)cc3)nc2Oc2c(F)cccc21 [Example 26] | 6.98 | 5000 | – | –

Row | Structure (SMILES) | AP-1 Max % inhibition (measured in cellular transrepression assay) [1] [%] | EC50 ([1]; Homo sapiens) [nM] | Ki [2] [nM] | EC50 [1] [nM]
22 | CNC(=O)NC(=O)C(C)(C)[C@@H]1c2ccc(-c3ccc(N4CCOCC4)nc3)nc2Oc2c(F)cccc21 [Example 27] | 16.38 | 5000 | 10.9 | –
23 | CC(C)(C(=O)NC(N)=O)[C@H]1c2ccccc2Oc2nc(-c3ccc(C(=O)N4CCOCC4)cc3)ccc21 [Example 28] | 68.66 | 7.63 | – | –
24 | COc1ccc(CNC(=O)NC(=O)C(C)(C)[C@@H]2c3ccc(-c4ccc(C(C)(C)O)cc4)nc3Oc3c(F)cccc32)cc1 [Example 29] | 51.82 | 646 | 3.33 | –
25 | CC(C)(C(=O)NC(N)=O)[C@@H]1c2ccc(-c3ccc(C(=O)N4CCCC4)cc3)nc2Oc2c(F)cccc21 [Example 30] | 63.94 | – | 0.72 | 1.59
26 | CCS(=O)(=O)c1ccc(-c2ccc3c(n2)Oc2c(F)cccc2[C@@H]3C(C)(C)C(=O)NC(N)=O)cc1 [Example 31] | 56.84 | – | 0.43 | 5.55
27 | CC(C)S(=O)(=O)c1ccc(-c2ccc3c(n2)Oc2c(F)cccc2[C@@H]3C(C)(C)C(=O)NC(N)=O)cc1 [Example 32] | 59.56 | – | 3.55 | 4.89
28 | CC(C)(C(=O)NC(N)=O)[C@@H]1c2ccc(-c3ccc(S(C)(=O)=O)cc3)nc2Oc2c(F)cccc21 [Example 33] | 64.54 | – | 0.59 | 5.82
29 | CC(C)Oc1ccc(-c2ccc3c(n2)Oc2c(F)cccc2[C@@H]3C(C)(C)C(=O)NC(N)=O)cc1 [Example 34] | 68.62 | – | 0.25 | 1.24
30 | CC(C)Oc1ccc(-c2ccc3c(n2)Oc2c(F)cccc2[C@@H]3C(C)(C)C(=O)NC(N)=O)cc1F [Example 35] | 54.04 | – | 0.4 | 7.5
31 | CC(C)(C(=O)NC(N)=O)[C@H]1c2ccccc2Oc2nc(-c3ccc(C(=O)N4CCOCC4)c(F)c3)ccc21 [Example 44] | 69.43 | – | – | 13.9
32 | CC(C)(C(=O)NC(N)=O)[C@H]1c2ccccc2Oc2nc(-c3ccc(C(=O)N4CCOCC4)nc3)ccc21 [Example 55] | 60.59 | – | – | 116
33 | CC(C)(C(=O)NC(N)=O)[C@@H]1c2ccc(-c3ccc(C(=O)N4CCOCC4)c(F)c3)nc2Oc2c(F)cccc21 [Example 56] | 72.50 | – | – | 6.39
34 | CC(C)(O)c1ccc(-c2ccc3c(n2)Oc2c(F)cccc2[C@@H]3C(C)(C)C(=O)NC(N)=O)cc1 [Example 69] | 67.09 | 2.03 | – | –
35 | COc1ccc2c(c1)Oc1ccccc1[C@@H]2C(C)(C)C(=O)NC(N)=O [Example 74] | 7.70 | 5000 | – | –
36 | CC(C)(C(=O)NC(=O)NCCO)[C@@H]1c2ccc(-c3ccc(C(=O)N4CCOCC4)cc3)nc2Oc2c(F)cccc21 [Example 77] | 55.34 | 786 | – | –
37 | CC(C)(O)CNC(=O)NC(=O)C(C)(C)[C@@H]1c2ccc(-c3ccc(C(=O)N4CCOCC4)cc3)nc2Oc2c(F)cccc21 [Example 78] | 46.32 | 340 | – | –
38 | CC(C)(O)CNC(=O)NC(=O)C(C)(C)[C@@H]1c2ccc(-c3ccc(C(C)(C)O)cc3)nc2Oc2c(F)cccc21 [Example 79] | 36.12 | 789 | – | –
39 | CC(C)(O)c1ccc(-c2ccc3c(n2)Oc2c(F)cccc2[C@@H]3C(C)(C)C(=O)NC(=O)NCCO)cc1 [Example 80] | 44.42 | 84.6 | – | –
40 | CC(C)S(=O)(=O)c1ccc(-c2ccc3c(n2)Oc2ccccc2[C@@H]3C(C)(C)C(=O)NC(N)=O)cc1 [Example 82] | 60.06 | 6.69 | – | –
41 | CC(C)(C(=O)NC(N)=O)[C@@H]1c2ccc(-c3ccc(C(=O)N4CCC4)cc3)nc2Oc2c(F)cccc21 [Example 84] | 67.75 | 4.22 | – | –
